From US8114865B2, “Indazole derivatives as kinase inhibitors for the treatment of cancer” (Nerviano Medical Sciences S.R.L., priority 2006, dated 2012)

Legend:
[1] = molecular target: T1, ALK (Homo sapiens, UniProt Q9UM73); experiment: Biochemical assay for inhibitors of ALK kinase activity
T1 construct: ALK cytoplasmic domain, corresponding to residues 1060-1620; made in house; host or cells: Sf21 insect cells (baculovirus)
Text: ALK cytoplasmic domain, corresponding to residues 1060-1620 (the numbers of the amino acid residues refer to the Genbank accession number NP 004295.2) was PCR amplified from a human testis cDNA library.
For cloning purposes, the oligonucleotides included attB sites in order to obtain an attB-flanked PCR product suitable for cloning using the Gateway technology (Invitrogen). Furthermore, for purification purposes, forward primer included a PreScission cleavage site (Amersham Biosciences). The resulting PCR product was cloned in the baculovirus expression vector pVL1393 (Invitrogen), Gateway-modified. For expression and purification purposes, a GST tag was added N-terminal to the ALK cytoplasmic domain. Cloning was performed according to the protocols described in the Gateway manual (Invitrogen).
Baculovirus was generated by cotransfecting Sf9 insect cells with expression vector and the viral DNA using the BaculoGold™ transfection kit (Pharmingen).
Recombinant protein was produced by infecting Sf21 insect cells at the density of 1×10^6 cells/mL with 30 mL viral supernatant per billion cells with shaking at 27° C. After 48 hours of infections the cells were recovered, pelleted and frozen at −80° C.
Cells were resuspended in lysis buffer (Tris-HCl 50 mM pH8, NaCl 150 mM, CHAPS 0.2%, DTT 20 mM, glycerol 20%, “Complete” protease inhibitor cocktail (Roche Diagnostics), Na3VO4 1 mM and lysed by liquid extrusion with a Gaulin homogenizer (Niro Soavi Italy). The lysate was cleared by centrifugation at 20000 g for 30 minutes and loaded on a Glutathione Sepharose 4B (Amersham Biosciences) column.
After extensive wash, recombinant protein was eluted with 10 mM Glutathione in 100 mM Tris-HCl pH8, 10% glycerol.
Affinity purified GST-ALK was loaded on a Heparin Sepharose™ FF (Amersham Biosciences) column and eluted with 50 mM NaCl, 25 mM TRIS pH 7.5, 2 mM DTT, 20% glycerol.
The eluted fractions were pooled and dialyzed against 150 mM NaCl, 50 mM Tris-HCl pH 7.4, 2 mM DTT, 20% glycerol.
The in vitro kinase inhibition assay was conducted in the same way as described for IGF-1R. […]

[2] = test system: IGF1-induced S6 phosphorylation; experiment: Growth factor induced S6 ribosomal protein phosphorylation in primary human fibroblasts; assay type: cell-based; conditions: normal human dermal fibroblasts (NHDF), 10 nM IGF-1
Procedure: Phosphorylation of S6 ribosomal protein in response to growth factor stimulation of normal human dermal fibroblasts (NHDF) was used to assess compound potency in inhibiting IGF-1 induced signal transduction in cells, and selectivity towards EGF and PDGF stimulus. NHDF cells obtained from PromoCell (Heidelberg, Germany), were maintained at 37° C. in a humidified atmosphere with 5% CO2 in complete Fibroblast Growth Medium (PromoCell). For assay, NHDF were seeded in 384-well tissue culture plates (clear- and flat-bottomed black plates; Matrix Technologies Inc., Hudson, N.H., USA) at a density of 5000 cells/well in serum-free medium containing 0.1% bovine serum albumin (BSA) and incubated for 5 days. Starved cells were treated for 1 hour with desired doses of compounds and then stimulated for a further 2 hours with either 10 nM IGF-1 (Invitrogen Corp., CA, USA), 10 nM EGF (Gibco BRL, USA) or 1 nM PDGF-B/B (Roche Diagnostics GmbH, Germany). Cells were then fixed in PBS/3.7% paraformaldehyde for 20 minutes at room temperature, washed ×2 with PBS, and permeabilized with PBS/0.3% Triton X-100 for 15 minutes. Wells were then saturated with PBS/1% non-fat dry milk (Bio-Rad Laboratories, Hercules, Calif., USA) for 1 hour, and then probed for 1 hour at 37° C. with anti-phospho-S6 (Ser 235/236) antibody (Cell Signaling Technology, Beverly, Mass., USA, cat. #2211) at 1/200 dilution in PBS/1% milk/0.3% Tween 20. Wells were then washed twice with PBS, and incubated for 1 hour at 37° C. with PBS/1% milk/0.3% Tween 20+1 microg/mL DAPI (4,6-diamidino-2-phenylindole)+ 1/500 Goat anti-rabbit Cy5™-conjugated secondary antibody (Amersham Biosciences, Little Chalfont, Buckinghamshire, UK). […] Fluorescence images in the DAPI and Cy5™ channels were automatically acquired, stored and analysed using a Cellomics ArrayScan™ IV instrument (Cellomics, Pittsburgh, USA); the Cellomics Cytotoxicity Algorithm was used to quantify cytoplasmic fluorescence associated with phospho-S6 (Cy5™ signal parameter: “Mean Lyso Mass-pH”) for each cell in 10 fields/well, and eventually expressed as a mean population value. […]

T1 sequence (Q9UM73 1060-1620): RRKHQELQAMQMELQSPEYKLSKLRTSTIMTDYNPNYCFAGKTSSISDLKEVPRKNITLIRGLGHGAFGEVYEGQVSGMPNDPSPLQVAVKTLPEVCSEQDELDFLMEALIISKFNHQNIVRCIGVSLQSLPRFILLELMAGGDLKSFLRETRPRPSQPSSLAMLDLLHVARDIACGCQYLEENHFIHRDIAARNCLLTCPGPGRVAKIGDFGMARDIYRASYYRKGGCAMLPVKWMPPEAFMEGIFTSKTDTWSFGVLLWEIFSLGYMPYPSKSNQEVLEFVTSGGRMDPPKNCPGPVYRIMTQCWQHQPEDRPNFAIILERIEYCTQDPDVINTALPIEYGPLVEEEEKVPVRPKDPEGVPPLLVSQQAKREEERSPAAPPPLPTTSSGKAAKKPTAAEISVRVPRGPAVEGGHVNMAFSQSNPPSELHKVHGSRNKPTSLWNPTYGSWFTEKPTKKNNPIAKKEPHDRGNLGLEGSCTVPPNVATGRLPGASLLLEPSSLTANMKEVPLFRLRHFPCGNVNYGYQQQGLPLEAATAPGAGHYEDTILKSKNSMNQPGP

IC50 [1] [µM]	SMILES	IC50 [2] [µM]
0.34	CN1CCN(c2ccc(C(=O)Nc3n[nH]c4ccc(S(=O)(=O)c5ccccc5)cc34)cc2)CC1 [Compound 1, N-(5-Benzenesulfonyl-1H-indazol-3-yl)-4-(4-methyl-piperazin-1-yl)-benzamide]	> 10
0.034	CN1CCN(c2ccc(C(=O)Nc3n[nH]c4ccc(S(=O)(=O)c5ccccc5)cc34)c(NC(=O)c3ccc[nH]3)c2)CC1 [Compound 33, 1H-pyrrole-2-carboxylic acid [2-(5-benzenesulfonyl-1H-indazol-3-ylcarbamoyl)-5-(4-methyl-piperazin-1-yl)-phenyl]amide]	0.27
0.17	CN1CCN(c2ccc(C(=O)Nc3n[nH]c4ccc(S(=O)(=O)c5ccccc5)cc34)c(NC(=O)[C@@H]3CCCO3)c2)CC1 [Compound 36, (S)-Tetrahydro-furan-2-carboxylic acid [2-(5-benzenesulfonyl-1H-indazol-3-ylcarbamoyl)-5-(4-methyl-piperazin-1-yl)-phenyl]-amide]	1.2
